The source of these data is article PMC9246196, “Novel pyrrolopyrimidine derivatives: design, synthesis, molecular docking, molecular simulations and biological evaluations as antioxidant and anti-inflammatory agents” (Journal of Enzyme Inhibition and Medicinal Chemistry, 2022).

In brackets after ≈: the same amount, converted by molar mass.

In data set [1] the test system is LPS-stimulated NO production by RAW 264.7 macrophages. Put plainly: Nitric oxide assay (Griess) in LPS-induced RAW 264.7 macrophages. It counts as cell-based. The conditions noted are these: Mus musculus; for IC50: RAW264.7, LPS-induced RAW 264.7, read-out: NO inhibition IC50; for inhibition at 12.5 µg/mL / inhibition at 25 µg/mL / inhibition at 50 µg/mL / inhibition at 100 µg/mL: RAW264.7, LPS 10 µg/mL, read-out: NO % inhibition (mean ± SEM). As to the method: (§1) RAW 264.7 cells were suspended in a RPMI medium. After 24 h of seeding 1 × 10^5 cells per well (in 96 well plates) and incubated for 24 h for the experiments. The cells were then treated with the samples at concentrations of 100, 50, 25 and 12.5 μg/mL and incubated for 1 h. They were then stimulated with 10 μg/mL of LPS for another 24 h. The supernatant was gently transferred to new 96-well plates and used for NO determination, while the cells that remained in the old plate were used for the MTT assay of cell viability. Samples (stock) were dissolved in DMSO, and the working samples were prepared in the media. Cell viability was assessed by the mitochondrial dependent reduction of yellow MTT (3–(4,5-dimethylthiazol-2-yl)-2,5-diphenyltetrazolium bromide) to purple formazan.
Nitric oxide production was assayed by measuring nitrite in the supernatants of cultured LPS-RAW 264.7 cells. The assay was carried out as described previously with slight modification[48]^,[50]. After pre-incubation of RAW 264.7 cells (1 × 10^5 cells/mL) with LPS (10 µg/mL) for 24 h, the amount of nitrite, a stable metabolite of NO used as an indicator of NO production in the culture medium was measured using the Griess reagent (1% sulphanilamide and 0.1% naphthyl ethylenediamine dihydrochloride in 2.5% phosphoric acid). A volume of 50 µL of the cell culture medium was mixed with 50 µL of the Griess reagent. Subsequently, the mixture was incubated at room temperature for 15 min and the absorbance was measured at 540 nm by a microplate reader. Fresh culture medium was used as a blank in every experiment. The quantity of nitrite was determined from a sodium nitrite standard curve as expressed in the equation. Nitric oxide inhibition (%)=(optical denisty of control−optical denisty of test /optical denisty of control ) ×100.
On the technique in general: Griess reagent forms a coloured azo dye with nitrite.

In another data set the test system is RAW 264.7 cells. Put plainly: MTT cytotoxicity against RAW 264.7 macrophage cells. Type of data set: cell-based. The settings on record: RAW 264.7, MTT. The protocol: The macrophage cell line, RAW 264.7 was obtained from the ATCC (American type culture collection). The cells were cultured in RPMI 1640 medium (Roswell Park Memorial Institute) and supplemented with 1% pen/strep and 10% heat-inactivated foetal bovine serum. The cells were incubated, in a humidified incubator, in an atmosphere of 5% CO2 at 37 °C and were subculture twice before the experiment.
as §1
The percentage of change in viability was calculated according to the formula: [(Reading of extract /Reading of negative control )−1]×100.

Data set [2] can be described thus: DPPH radical scavenging assay. It counts as biochemical. The protocol: DPPH scavenging potential of samples was determined with a slightly modified method[47]^,[48]. Each sample was prepared at 500 ppm. Serial concentrations of samples were prepared (200 µL, 400 µL and 800 µL). Methanol was added to complete the total volume to 1 mL and all the samples were vortexed well. 1 mL of 0.1 mM DPPH methanolic solution was added to each diluted sample. All the samples were vortexed again, then left to stand for 30 min in the dark at environment temperature. The absorption of the developed colour appeared against the blank reagent was measured at 517 nm using a spectrophotometer. BHT was used as a standard antioxidant. The capability to scavenge DPPH radical was estimated using the following equation: DPPH scavenging ability (% inhibition)=[(A0−A*)/A0]×100
A0 is Control absorption and A* is sample absorption.

As a reminder, the IC50 is the concentration that inhibits the measured activity by half. As a reminder, the inhibition is the share of the control response that was lost under treatment. A word on the melting point: it is the temperature, or range, at which the solid turns liquid. In turn, `S=c1[nH]nc2c3c(-c4ccccc4)cn(-c4ccc(Cl)cc4)c3ncn12` [4b, 7–(4-Chlorophenyl)-9-phenyl-7H-pyrrolo[3,2-e][1,2,4]triazolo[4,3-c]pyramid in-3-thione] registered a melting point of 187 to 189 °C. Also, in data set [1], the IC50 amounted to 64.8 µg/mL (≈ 171 µM), the inhibition at 12.5 µg/mL worked out at 39.8 ± 1.9%, the inhibition at 25 µg/mL was 52.8 ± 1.1% and the inhibition at 50 µg/mL worked out at 54.3 ± 1.6%. Besides, in data set [1], the inhibition at 100 µg/mL worked out at 58.1 ± 3.5%. Moreover, the “Cytotoxicity of raw cells% (mean ± SEM)” value with RAW 264.7 cells (12.5 µg/mL) was found to be 0%. Besides, the “Cytotoxicity of raw cells% (mean ± SEM)” value in the data set on RAW 264.7 cells (25 µg/mL) stood at 69.6 ± 1.3%. The “Cytotoxicity of raw cells% (mean ± SEM)” value with RAW 264.7 cells (50 µg/mL) was found to be 75.2 ± 2.5%. The “Cytotoxicity of raw cells% (mean ± SEM)” value in the data set on RAW 264.7 cells (100 µg/mL) was found to be 85.4 ± 0.6%. Besides, the “DPPH radical-scavenging IC50” value in data set [2] is recorded as 129.38 µg/mL. For the same compound, the “DPPH % Inhibition (mean ± SEM)” value in data set [2] (conc. 100 (µg/mL)) came out at 37.97 ± 0.71%. Besides, the “DPPH % Inhibition (mean ± SEM)” value in data set [2] (conc. 200 (µg/mL)) was 77.76 ± 1.60%. Besides, in data set [2] (conc. 400 (µg/mL)), the “DPPH % Inhibition (mean ± SEM)” value turned out to be 79.55 ± 1.06%.
As for `Cc1nnc2c3c(-c4ccccc4)cn(-c4ccc(Cl)cc4)c3ncn12` [5b, 7–(4-Chlorophenyl)-3-methyl-9-phenyl-7H-pyrrolo[3,2-e][1,2,4]triazolo[4,3-c] pyrimidine], the melting point was in the range of 201 to 203 °C.
Same read-out and setting: next, `Clc1ccc(/C=N/Nc2ncnc3c2c(-c2ccccc2)cn3-c2cccc(Cl)c2)cc1` [8c, 7–(3-Chlorophenyl)-N-[(E)-(4-chlorophenyl)methyleneamino]-5-phenyl-pyrrolo[2,3-d]pyrimidin-4-amine]: 247 to 249 °C; `Cc1cc(C)n(-c2ncnc3c2c(-c2ccccc2)cn3-c2cccc(Cl)c2)n1` [7a, 7–(3-Chlorophenyl)-4–(3,5-dimethyl-pyrazol-1-yl)-5-phenyl-pyrrolo[2,3-d]pyrimidine]: 180 to 182 °C.
As to `Clc1cccc(-n2cc(-c3ccccc3)c3c2ncn2cnnc32)c1` [3a, 7–(3-Chlorophenyl)-9-phenyl-7H-pyrrolo[3,2-e][1,2,4]triazolo[4,3-c] pyrimidine], the melting point was in the range of 176 to 178 °C. In addition, in data set [1], the IC50 is 57.3 µg/mL (≈ 166 µM), the inhibition at 12.5 µg/mL stood at 40.6 ± 2.6%, the inhibition at 25 µg/mL worked out at 53.1 ± 1.3% and the inhibition at 50 µg/mL amounted to 62.5 ± 1.2%. For the same compound, in data set [1], the inhibition at 100 µg/mL came to 65.6 ± 1.2%. Besides, in the data set with RAW 264.7 cells (12.5 µg/mL), the “Cytotoxicity of raw cells% (mean ± SEM)” value was 0%. Besides, the “Cytotoxicity of raw cells% (mean ± SEM)” value in the data set on RAW 264.7 cells (25 µg/mL) came to 76.5 ± 1.9%. Further, the “Cytotoxicity of raw cells% (mean ± SEM)” value in the data set with RAW 264.7 cells (50 µg/mL) came to 78.7 ± 2.2%. Also, the “Cytotoxicity of raw cells% (mean ± SEM)” value in the data set on RAW 264.7 cells (100 µg/mL) is reported as 92.0 ± 1.6%. The “DPPH radical-scavenging IC50” value in data set [2] is 160.05 µg/mL. Further, the “DPPH % Inhibition (mean ± SEM)” value in data set [2] (conc. 100 (µg/mL)) is on record as 39.56 ± 0.88%. Also, in data set [2] (conc. 200 (µg/mL)), the “DPPH % Inhibition (mean ± SEM)” value is on record as 58.09 ± 1.50%. In addition, the “DPPH % Inhibition (mean ± SEM)” value in data set [2] (conc. 400 (µg/mL)) is listed as 62.51 ± 0.32%.
`Cc1cc(C)n(-c2ncnc3c2c(-c2ccccc2)cn3-c2ccc(Cl)cc2)n1` [7b, 7–(4-Chlorophenyl)-4–(3,5-dimethyl-pyrazol-1-yl)-5-phenyl-pyrrolo[2,3-d]pyrimidine]: the melting point is 199 to 201 °C.
Turning to `Clc1ccc(-n2cc(-c3ccccc3)c3c(N/N=C/c4ccccc4)ncnc32)cc1` [8b, N-[(E)-benzylideneamino]-7–(4-chlorophenyl)-5-phenyl-pyrrolo[2,3-d]pyrimidin-4-amine], the melting point fell in the range of 172 to 174 °C.
Still for that read-out and setting: with `NNc1ncnc2c1c(-c1ccccc1)cn2-c1cccc(Cl)c1` [2a, (7–(3-Chlorophenyl)-5-phenyl-7H-pyrrolo[2,3-d]pyrimidin-4-yl)-hydrazine] the figure was 204 to 206 °C; with `O=c1[nH]nc2c3c(-c4ccccc4)cn(-c4cccc(Cl)c4)c3ncn12` [6a, 7–(3-Chlorophenyl)-9-phenyl-7H-pyrrolo[3,2-e][1,2,4]triazolo[4,3-c]pyrimidin-3-one], 226 to 228 °C; with `COc1ccc(/C=N/Nc2ncnc3c2c(-c2ccccc2)cn3-c2ccc(Cl)cc2)cc1` [8f, 7–(4-Chlorophenyl)-N-[(E)-(4-methoxyphenyl)methyleneamino]-5-phenyl-pyrrolo[2,3-d]pyrimidin-4-amine], 194 to 196 °C.
In turn, `COc1ccc(/C=N/Nc2ncnc3c2c(-c2ccccc2)cn3-c2cccc(Cl)c2)cc1` [8e, 7–(3-Chlorophenyl)-N-[(E)-(4-methoxyphenyl)methyleneamino]-5-phenyl-pyrrolo[2,3-d]pyrimidin-4-amine] displayed a melting point of 167 to 169 °C. Besides, in data set [1], the concentration for half-maximal inhibition (IC50) is about 53 µg/mL (≈ 117 µM), the inhibition at 12.5 µg/mL worked out at 38.7 ± 1.7%, the inhibition at 25 µg/mL was 66.5 ± 3.7% and the inhibition at 50 µg/mL turned out to be 67.5 ± 1.8%. Also, in data set [1], the inhibition at 100 µg/mL stood at 71.8 ± 1%. Moreover, the “Cytotoxicity of raw cells% (mean ± SEM)” value with RAW 264.7 cells (12.5 µg/mL) is given as 0%. For the same compound, in the data set on RAW 264.7 cells (25 µg/mL), the “Cytotoxicity of raw cells% (mean ± SEM)” value is on record as 65 ± 3.1%. Further, the “Cytotoxicity of raw cells% (mean ± SEM)” value in the data set with RAW 264.7 cells (50 µg/mL) is given as 73.1 ± 1.3%. The “Cytotoxicity of raw cells% (mean ± SEM)” value in the data set on RAW 264.7 cells (100 µg/mL) is listed as 77.7 ± 1.5%. Also, the “DPPH radical-scavenging IC50” value in data set [2] is 122.07 µg/mL. The “DPPH % Inhibition (mean ± SEM)” value in data set [2] (conc. 100 (µg/mL)) stood at 40.63 ± 2.13%. The “DPPH % Inhibition (mean ± SEM)” value in data set [2] (conc. 200 (µg/mL)) was 82.15 ± 0.14%. Moreover, in data set [2] (conc. 400 (µg/mL)), the “DPPH % Inhibition (mean ± SEM)” value stood at 85.22 ± 0.17%.
`Clc1ccc(-n2cc(-c3ccccc3)c3c2ncn2cnnc32)cc1` [3b, 7–(4-Chlorophenyl)-9-phenyl-7H-pyrrolo[3,2-e][1,2,4]triazolo[4,3-c] pyrimidine] gave a melting point of 190 to 192 °C.
Still for that read-out and setting: with `Clc1cccc(-n2cc(-c3ccccc3)c3c(N/N=C/c4ccccc4)ncnc32)c1` [8a, N-[(E)-benzylideneamino]-7–(3-chlorophenyl)-5-phenyl-pyrrolo[2,3-d]pyrimidin-4-amine] the figure was 187 to 189 °C.
With `Cc1cc(C(C)(C)C)c(O)c(C(C)(C)C)c1` [BHT, butylated hydroxytoluene, reference compound], the “DPPH radical-scavenging IC50” value in data set [2] amounted to 128.77 µg/mL. In addition, the “DPPH % Inhibition (mean ± SEM)” value in data set [2] (conc. 100 (µg/mL)) came to 40.03 ± 0.39%; in data set [2] (conc. 200 (µg/mL)), 76.81 ± 0.21%; in data set [2] (conc. 400 (µg/mL)), 90.07 ± 0.26%.
Take `Cc1nnc2c3c(-c4ccccc4)cn(-c4cccc(Cl)c4)c3ncn12` [5a, 7–(3-Chlorophenyl)-3-methyl-9-phenyl-7H-pyrrolo[3,2-e][1,2,4]triazolo[4,3-c] pyrimidine]: the melting point lay within 227 to 229 °C.
Same read-out and setting: next, `O=c1[nH]nc2c3c(-c4ccccc4)cn(-c4ccc(Cl)cc4)c3ncn12` [6b, 7–(4-Chlorophenyl)-9-phenyl-7H-pyrrolo[3,2-e][1,2,4]triazolo[4,3-c]pyrimidin-3-one]: 233 to 235 °C; `NNc1ncnc2c1c(-c1ccccc1)cn2-c1ccc(Cl)cc1` [2b, (7–(4-Chlorophenyl)-5-phenyl-7H-pyrrolo[2,3-d]pyrimidin-4-yl)-hydrazine]: 217 to 219 °C; `Clc1ccc(/C=N/Nc2ncnc3c2c(-c2ccccc2)cn3-c2ccc(Cl)cc2)cc1` [8d, 7–(4-Chlorophenyl)-N-[(E)-(4-chlorophenyl)methyleneamino]-5-phenyl-pyrrolo[2,3-d]pyrimidin-4-amine]: 187 to 189 °C.
